# Experiments:
# [1] = Release profile (cumulative fraction released) of a memantine and dihydroergotamine combination, USP II Paddle system, water; format: physicochemical
# Text: The cumulative fraction is the amount of drug substance released from the formulation matrix to the serum or gut environment (e.g., U.S. Pat. No. 4,839,177) or as measured with a USP II Paddle system using water as the dissolution medium.
# [2] = head of release table, Example 3; cited from earlier work
# [3] = humans; cited from earlier work
Compound,cum. fraction ([1]; Time 1),cum. fraction ([1]; Time 2),cum. fraction ([1]; Time 4),cum. fraction ([1]; Time 8),cum. fraction ([1]; Time 12),cum. fraction ([1]; Time 16),cum. fraction ([1]; Time 20),cum. fraction ([1]; Time 24),T½ [2],Dose Dependent Tox [3]
"CN1C[C@H](C(=O)N[C@]2(C)O[C@@]3(O)[C@@H]4CCCN4C(=O)[C@H](Cc4ccccc4)N3C2=O)C[C@@H]2c3cccc4[nH]cc(c34)C[C@H]21 [DIHYDROERGOTAMINE, dihydroergotamine]",0.15,0.30,0.45,0.60,0.75,0.90,0.98,0.99,T½ = 15 hrs,–
"CC12CC3CC(C)(C1)CC(N)(C3)C2 [Memantine, 1-amino-3,5-dimethyladamantane]",0.15,0.30,0.45,0.60,0.75,0.90,0.98,0.99,–,–
"CC(N)C12CC3CC(CC(C3)C1)C2 (stereo not drawn) [Rimantadine, 1-(1-aminoethyl)adamantane]",–,–,–,–,–,–,–,–,–,Insomnia

# Reference: patent US20100029665A1, “Methods and Compositions for Treating Migraine Pain” (priority 2004, published 2010)
